Values quoted from earlier work as cited in patent US11344534B2, “Cholinergic agonism for the treatment of pancreatic cancer” (priority 2017, dated 2022).
Where two headings read alike, the source gives them in different places.

Details: cited from earlier work

Q: With CC(C[N+](C)(C)C)OC(N)=O (stereo not drawn) [bethanechol, 2-[(aminocarbonyl)oxy]-N,N,N-trimethyl-1-propanaminium] as the compound, how does the “toxicity in treatment of xerostomia” value (cancer patients, 25 mg twice daily for several months) read?
A: Its value is “without any severe (Grade 3) toxicity”.

Q: And the “side effects in treatment of xerostomia” value (cancer patients, up to 50 mg three times daily and 25 mg 3 times a day)?
A: The value was “did not identify any clinically significant side effects”.

Q: What about the duration of action (human, in vivo) of the same compound?
A: Its duration of action is 6 h.

Q: And the “interactions with gemcitabine or nab-paclitaxel” value (human, in vivo)?
A: Its value is “no reported interactions”.

Q: What about the “toxicity in treatment of xerostomia” value (oncology, doses up to 50 mg three times daily) of the same compound?
A: Its value is “without grade 3 toxicity or need for discontinuation”.

Q: And the “toxicity of single doses” value (single doses up to 200 mg)?
A: The value was “only mild cholinergic toxicity”.
